Data: patent publication US10220048B2, “Compositions and methods for treating ocular diseases” (Aerpio Therapeutics, Inc., priority 2013, dated 2019)
Several values for one entry are separate records, joined by “and”; a condition that tells them apart may be missing. Equal entries are not always repeated. Entries after “also recorded” stand apart in the source; their conditions may differ.

Experiments:
[1] = target: HPTP-β (Homo sapiens (Human), UniProt P23467); assay: HPTP-β inhibition (IC50); type: biochemical; conditions: read-out: HPTPβ IC50
[2] = tested on: patients with diabetic macular edema; assay: Central Foveal Thickness by ocular coherence tomography in diabetic macular edema patients given the disclosed compound subcutaneously plus intravitreal anti-VEGF agent; type: in vivo, human
Method: The disclosed Figures represent a control or baseline study used as a benchmark for determining the effectiveness of the disclosed methods for treating ocular diseases (FIGS. 1 and 3) and studies directed to the disclosed methods. Described herein below, four patients with visual acuity loss due to diabetic macular edema (central retinal thickness [CRT] of more than 325 microns and best corrected visual acuity less than 70 letters) were treated with subcutaneous injections of 5 mg of the disclosed compound twice a day for 28 days and then observed for an additional two months (days 28 through 84). At any time during the course of the study, investigators could administer additional therapy consisting of intravitreal injection of an anti-VEGF agent, for example, ranibizumab, bevacizumab and/or aflibercept if considered by the investigator to be medically necessary. Retinal thickness as measured by ocular coherence tomography and best corrected visual acuity as measured by a standard vision test were assessed at regular intervals during the 28 day active treatment phase and through the 2 month post-treatment observation phase, (Screening, Day 1 [baseline], Day 7, Day 14, Day 21, Day 28, Day 42, Day 56 and Day 84). The main efficacy outcomes for the study were change in CRT and visual acuity over time with treatment. FIG. 2 depicts the results of a study wherein 4 patients received 5 mg of the disclosed compound subcutaneously twice daily for 28 days and subsequently were treated in one or both eyes (7 eyes total) with either ranibizumab (0.3 or 0.5 mg) or aflibercept (2 mg) by intravitreal injection at the discretion of the study investigator. […] The mean change in Central Foveal Thickness was −289 μm, approximately double the reduction seen 7 days to one month after ranibizumab injection in the benchmark study as depicted in FIG. 1. FIG. 5 represents the results of a single patient. The eye having the greater Central Foveal Thickness is chosen as the Study Eye. The patient from day one was given 5 mg of the disclosed compound subcutaneously twice daily. At week 3 (21 days, indicated by arrow) the fellow eye is treated with 0.5 mg of ranibizumab. At week 6 (42 days, indicated by arrow) the treated eye is treated with 0.5 mg of ranibizumab. […] Without wishing to be limited by theory, it is believed that when the fellow eye is treated with an injection of 0.5 mg of ranibizumab, the ranibizumab enters the study eye systemically. […] At week 6, the study eye is treated with an intravitreal injection of 0.5 mg of ranibizumab. As depicted in FIG. 5, by week 8, there is an overall reduction in CFT of approximately 690 μm, wherein the CFT of the subject eye is approximately 180 μm. Although the Fellow Eye began with less CFT than the study eye, nevertheless, treatment with ranibizumab at week 3 (day 21) produced a change in CFT of approximately 430 μm. […] FIG. 6 represents the results of a single patient. The eye having the greater Central Foveal Thickness is chosen as the Treated Eye (Study Eye). The patient from day one was given 5 mg of the disclosed compound subcutaneously twice daily. At week 3 (21 days, indicated by arrow) the fellow eye is rescued with 2 mg of aflibercept. […] At week 6 (42 days, indicated by arrow) the treated eye is rescued with 2 mg of aflibercept. […] The disclosed Figures represent a control or baseline study used as a benchmark for determining the effectiveness of the disclosed methods for treating ocular diseases (FIGS. 1 and 3) and studies directed to the disclosed methods. Described herein below, four patients with visual acuity loss due to diabetic macular edema (central retinal thickness [CRT] of more than 325 microns and best corrected visual acuity less than 70 letters) were treated with subcutaneous injections of 5 mg of the disclosed compound twice a day for 28 days and then observed for an additional two months (days 28 through 84). […]

[3] = tested on: patients with diabetic macular edema; assay: Best corrected visual acuity (letters) in diabetic macular edema patients given the disclosed compound subcutaneously plus intravitreal anti-VEGF agent; type: in vivo, human; conditions: 5 mg s.c. twice daily 28 days, then ranibizumab or aflibercept intravitreal; 14-28 days post anti-VEGF (FIG. 4)
Method: The disclosed Figures represent a control or baseline study used as a benchmark for determining the effectiveness of the disclosed methods for treating ocular diseases (FIGS. 1 and 3) and studies directed to the disclosed methods. Described herein below, four patients with visual acuity loss due to diabetic macular edema (central retinal thickness [CRT] of more than 325 microns and best corrected visual acuity less than 70 letters) were treated with subcutaneous injections of 5 mg of the disclosed compound twice a day for 28 days and then observed for an additional two months (days 28 through 84). At any time during the course of the study, investigators could administer additional therapy consisting of intravitreal injection of an anti-VEGF agent, for example, ranibizumab, bevacizumab and/or aflibercept if considered by the investigator to be medically necessary. Retinal thickness as measured by ocular coherence tomography and best corrected visual acuity as measured by a standard vision test were assessed at regular intervals during the 28 day active treatment phase and through the 2 month post-treatment observation phase, (Screening, Day 1 [baseline], Day 7, Day 14, Day 21, Day 28, Day 42, Day 56 and Day 84). The main efficacy outcomes for the study were change in CRT and visual acuity over time with treatment. […]

[4] = single patient (FIG. 5), 5 mg s.c. twice daily, study eye given 0.5 mg ranibizumab at week 6
[5] = single patient, aflibercept protocol (FIG. 6)

HPTP-β, sequence (P23467 23-1997): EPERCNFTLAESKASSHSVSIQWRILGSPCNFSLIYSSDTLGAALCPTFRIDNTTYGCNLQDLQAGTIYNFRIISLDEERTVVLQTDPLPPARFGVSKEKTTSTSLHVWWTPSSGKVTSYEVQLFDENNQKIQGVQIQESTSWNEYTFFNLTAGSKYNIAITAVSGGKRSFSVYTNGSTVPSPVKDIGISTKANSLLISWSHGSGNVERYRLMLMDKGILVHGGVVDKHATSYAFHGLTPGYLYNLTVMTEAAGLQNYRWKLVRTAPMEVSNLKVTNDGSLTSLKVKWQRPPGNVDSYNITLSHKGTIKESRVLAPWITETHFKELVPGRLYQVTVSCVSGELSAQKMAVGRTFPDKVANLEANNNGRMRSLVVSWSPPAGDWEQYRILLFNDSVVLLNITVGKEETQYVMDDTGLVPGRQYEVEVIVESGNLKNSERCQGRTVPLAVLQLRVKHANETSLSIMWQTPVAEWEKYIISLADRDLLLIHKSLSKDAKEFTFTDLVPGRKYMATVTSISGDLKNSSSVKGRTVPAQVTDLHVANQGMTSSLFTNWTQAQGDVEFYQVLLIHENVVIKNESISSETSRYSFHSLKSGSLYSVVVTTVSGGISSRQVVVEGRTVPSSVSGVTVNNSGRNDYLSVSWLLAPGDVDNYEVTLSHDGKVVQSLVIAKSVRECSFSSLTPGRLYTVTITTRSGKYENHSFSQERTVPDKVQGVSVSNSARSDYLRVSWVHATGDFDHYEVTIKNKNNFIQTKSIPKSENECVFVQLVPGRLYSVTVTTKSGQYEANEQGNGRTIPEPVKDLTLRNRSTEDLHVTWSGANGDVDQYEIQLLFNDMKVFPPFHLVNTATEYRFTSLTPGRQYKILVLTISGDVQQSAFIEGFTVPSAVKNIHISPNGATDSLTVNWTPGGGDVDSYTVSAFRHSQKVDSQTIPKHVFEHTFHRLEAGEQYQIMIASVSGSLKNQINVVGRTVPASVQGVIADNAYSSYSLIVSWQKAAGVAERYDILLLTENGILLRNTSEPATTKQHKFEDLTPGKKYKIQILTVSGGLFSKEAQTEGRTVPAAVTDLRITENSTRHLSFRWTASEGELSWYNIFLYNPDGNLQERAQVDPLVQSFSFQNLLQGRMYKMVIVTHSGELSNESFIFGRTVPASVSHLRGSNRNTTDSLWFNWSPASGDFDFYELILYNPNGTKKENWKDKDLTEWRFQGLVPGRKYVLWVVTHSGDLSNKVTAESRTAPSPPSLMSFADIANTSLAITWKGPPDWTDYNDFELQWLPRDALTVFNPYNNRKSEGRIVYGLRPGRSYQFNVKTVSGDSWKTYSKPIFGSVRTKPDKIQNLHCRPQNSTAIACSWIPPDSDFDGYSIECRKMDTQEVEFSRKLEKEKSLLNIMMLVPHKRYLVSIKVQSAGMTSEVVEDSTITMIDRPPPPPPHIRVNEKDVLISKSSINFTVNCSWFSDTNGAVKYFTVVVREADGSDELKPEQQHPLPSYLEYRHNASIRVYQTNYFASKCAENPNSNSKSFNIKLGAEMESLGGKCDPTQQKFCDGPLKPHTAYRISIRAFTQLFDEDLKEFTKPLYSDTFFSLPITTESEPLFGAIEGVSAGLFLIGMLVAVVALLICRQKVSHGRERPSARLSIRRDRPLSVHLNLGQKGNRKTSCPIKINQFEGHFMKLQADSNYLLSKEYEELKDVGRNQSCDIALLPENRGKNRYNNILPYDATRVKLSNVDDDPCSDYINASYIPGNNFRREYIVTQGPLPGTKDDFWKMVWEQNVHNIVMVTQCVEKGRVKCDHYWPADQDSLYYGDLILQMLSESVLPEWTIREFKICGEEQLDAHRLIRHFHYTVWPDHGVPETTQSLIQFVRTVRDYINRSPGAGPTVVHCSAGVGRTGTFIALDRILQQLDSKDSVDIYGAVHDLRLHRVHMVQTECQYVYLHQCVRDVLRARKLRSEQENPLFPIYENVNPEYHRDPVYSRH

COC(=O)N[C@@H](Cc1ccccc1)C(=O)N[C@@H](Cc1ccc(NS(=O)(=O)O)cc1)c1nc(-c2ccccc2)cs1 [AA21, 4-{(S)-2-[(S)-2-(Methoxycarbonylamino)-3-phenylpropanamido]-2-(4-phenylthiazol-2-yl)ethyl}phenylsulfamic acid]
IC50 [1]: < 2 pM

COC(=O)N[C@@H](Cc1ccccc1)C(=O)N[C@@H](Cc1ccc(NS(=O)(=O)O)cc1)c1csc(-c2cccs2)n1 [the disclosed compound, 4-{(S)-2-[(S)-2-(methoxycarbonylamino)-3-phenylpropanamido]-2-[2-(thiophen-2-yl)thiazol-4-yl]ethyl}phenylsulfamic acid]
Central Foveal Reduction, individual patient eye ([2]; 5 mg s.c. twice daily 28 days, then ranibizumab (0.3 or 0.5 mg) or aflibercept (2 mg) intravitreal, 14-28 days post anti-VEGF, 7 eyes (FIG. 2)): 50-100 μm and 150-200 μm and 200-250 μm and 300-350 μm and 350-400 μm and 450-500 μm
mean change in Central Foveal Thickness ([2]; 5 mg s.c. twice daily 28 days, then ranibizumab or aflibercept intravitreal, 14-28 days post anti-VEGF, 7 eyes (FIG. 2)): −289 μm
CFT reduction relative to reduction after ranibizumab in benchmark study ([2]; combination versus FIG. 1 benchmark): approximately double
CFT of study eye at week 6 ([2]; single patient (FIG. 5), 5 mg s.c. twice daily, before ranibizumab to study eye): approximately 775 μm
change in CFT, fellow eye, after ranibizumab at week 3 ([2]; single patient (FIG. 5), 5 mg s.c. twice daily, fellow eye given 0.5 mg ranibizumab at day 21, by week 4): approximately 430 μm and 350 μm
reduction in CFT, study eye, day 21 to day 28 ([2]; single patient (FIG. 5), 5 mg s.c. twice daily, fellow eye given 0.5 mg ranibizumab at week 3): approximately 300 μm; also recorded: approximately 250 μm
CFT of study eye at week 8 [2, 4]: approximately 180 μm; also recorded: approximately 225 μm
overall reduction in CFT, study eye, by week 8 [2, 4]: approximately 690 μm; also recorded: approximately 500 μm
CFT reduction, fellow eye, after rescue ([2]; single patient (FIG. 6), 5 mg s.c. twice daily, fellow eye rescued with 2 mg aflibercept): approximately 400 μm
CFT reduction, study eye, after rescue ([2]; single patient (FIG. 6), 5 mg s.c. twice daily, study eye rescued with 2 mg aflibercept at week 6): approximately 310 μm; also recorded: approximately 300 μm
reduction of CFT from onset of the study, non-treated eye [2, 5]: ~280 μm
reduction of CFT from onset of the study, study eye [2, 5]: approximately 300 μm
mean change in Visual Acuity [3]: 9 letters
